Experimental data reported in patent US4820695A, “C-20-dihydro-deoxy-(cyclic amino)-derivatives of macrolide antibiotics” (priority 1987, dated 1989).
Values after ≈ are worked out from the molar mass of the structure shown. Read-outs that look alike come from different tables or passages of the source.

Legend:
Pasteurella multocida [1] = test: Pasteurella infection in one-day-old chicks, medicated drinking water (Table XIII); type: in vivo; details: Administered in the available drinking water at 2 g/gal
In short: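 Oral dosing was by medicated drinking water (2 g/gal), offered from 4–20 h pre-infection and through a 3-day observation period. The chicks, one day old, were infected s.c. with 0.1 ml of a 10^-4-diluted, 20-h tryptose broth culture of avian Pasteurella multocida.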

Pasteurella multocida [2] = test: Pasteurella infection in one-day-old chicks, subcutaneous administration (Table XII); type: in vivo; details: Administered subcutaneously, 30 mg/kg × 2, 1 and 4 hours post-challenge
In short: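 Treatment was 30 mg/kg s.c., given twice (1 and 4 h after infection). The infection itself was induced in day-old chicks by s.c. injection of 0.1 ml of avian Pasteurella multocida culture (20-h tryptose broth, diluted 10^-4).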

[3] = test system: Staphylococcus epidermidis 222; test: MIC, standard agar-dilution assay (Table IX); type: cell-based; details: read-out: MIC
Group D strain 9960 = test: MIC, standard agar-dilution assay (Table IX); type: cell-based, Streptococcus Group D; details: tested using predecessor Group D strain 9960
[4] = test system: Staphylococcus aureus X400; test: MIC, standard agar-dilution assay (Table IX); type: cell-based; details: Staphylococcus aureus X400, Methicillin-resistant strain, read-out: MIC
[5] = test system: Streptococcus pneumoniae Park I; test: MIC, standard agar-dilution assay (Table IX); type: cell-based; details: Streptococcus pneumoniae Park I; agar-dilution; read-out: MIC
[6] = test system: Haemophilus influenzae 76; test: MIC, standard agar-dilution assay (Table IX); type: cell-based; details: Haemophilus influenzae 76, Ampicillin-resistant strain, read-out: MIC
[7] = test system: Streptococcus pyogenes C203; test: MIC, standard agar-dilution assay (Table IX); type: cell-based; details: read-out: MIC
[8] = test system: Staphylococcus epidermidis EPI1; test: MIC, standard agar-dilution assay (Table IX); type: cell-based; details: Staphylococcus epidermidis EPI1; agar-dilution; read-out: MIC
[9] = test system: Haemophilus influenzae C.L.; test: MIC, standard agar-dilution assay (Table IX); type: cell-based; details: Ampicillin-sensitive strain, read-out: MIC
Escherichia coli EC14 = test: MIC, standard agar-dilution assay (Table IX); type: cell-based; details: read-out: MIC
[10] = test system: Staphylococcus aureus V41; test: MIC, standard agar-dilution assay (Table IX); type: cell-based; details: Staphylococcus aureus V41, Penicillin-resistant strain, read-out: MIC
Escherichia coli N10 = test: MIC, standard agar-dilution assay (Table IX); type: cell-based; details: read-out: MIC
Staphyloccus aureus X1.1 = test: MIC, standard agar-dilution assay (Table IX); type: cell-based, Staphylococcus aureus; details: Staphylococcus aureus, read-out: MIC
Klebsiella X26 = test: MIC, standard agar-dilution assay (Table IX); type: cell-based; details: read-out: MIC
[11] = test system: Staphylococcus aureus S13E; test: MIC, standard agar-dilution assay (Table IX); type: cell-based; details: Staphylococcus aureus, S13E
Escherichia coli TEM = test: MIC, standard agar-dilution assay (Table IX); type: cell-based; details: read-out: MIC
[12] = test system: Streptococcus pyogenes C203; test: ED50 in mice experimentally infected with S. pyogenes C203 (Table XI); type: in vivo; details: Streptococcus pyogenes, doses given 1 and 4 hours postinfection, read-out: ED50
In short: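 Protective ED50 (mg/kg × 2) was determined as the dose sparing half the animals. Test compound was given twice, at 1 and 4 hours after experimental S. pyogenes C203 infection of mice.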

[13] = test system: Streptococcus Group D X66; test: MIC, standard agar-dilution assay (Table IX); type: cell-based; details: read-out: MIC
[14] = test system: Pasteurella hemolytica 22C; test: MIC, broth-dilution microtiter test (Table X); type: cell-based; details: read-out: MIC
From the text: (§1) The MIC's in Table X were obtained using conventional broth-dilution microtiter tests.

[15] = test system: Mycoplasma gallisepticum 29C; test: MIC, broth-dilution microtiter test (Table X); type: cell-based; details: Mycoplasmoides gallisepticum, read-out: MIC
From the text: as §1

Mycoplasma synoviae 40A = test: MIC, broth-dilution microtiter test (Table X); type: cell-based; details: Mycoplasmopsis synoviae, read-out: MIC
From the text: as §1

[16] = test system: Pasteurella multocida 17E; test: MIC, broth-dilution microtiter test (Table X); type: cell-based; details: Bovine isolate, read-out: MIC
From the text: as §1

[17] = test system: Pasteurella multocida 60A; test: MIC, broth-dilution microtiter test (Table X); type: cell-based; details: Avian isolate, read-out: MIC
From the text: as §1

Streptococcus sp. 19F = test: MIC, broth-dilution microtiter test (Table X); type: cell-based; details: read-out: MIC
From the text: as §1

Staphylococcus aureus = test: MIC, broth-dilution microtiter test (Table X); type: cell-based; details: read-out: MIC
From the text: as §1

[18] = test system: Mycoplasma hyopneumoniae S5972; test: MIC, broth-dilution microtiter test (Table X); type: cell-based; details: Mesomycoplasma hyopneumoniae, read-out: MIC
From the text: as §1

Mycoplasma hyorhinis 29E = test: MIC, broth-dilution microtiter test (Table X); type: cell-based; details: read-out: MIC
From the text: as §1

[19] = Titratable groups in 66% aqueous DMF (Tables XIV-XVI); type: physicochemical
From the text: ^c Run in 66% aqueous DMF
^d Run in 66% aqueous DMF

[20] = test system: Streptococcus Group D 2041; test: MIC, standard agar-dilution assay (Table IX); type: cell-based; details: GROUPD2041, read-out: MIC
[21] = test system: Staphylococcus aureus 19C; test: MIC, broth-dilution microtiter test (Table X); type: cell-based
From the text: as §1

SMILES | MIC [3] [µg/mL] | MIC [4] [µg/mL] | MIC [5] [µg/mL] | MIC [6] [µg/mL] | MIC [7] [µg/mL] | MIC [8] [µg/mL] | MIC [9] [µg/mL] | MIC (Escherichia coli EC14) [µg/mL] | MIC [10] [µg/mL] | MIC (Escherichia coli N10) [µg/mL] | MIC (Staphyloccus aureus X1.1) [µg/mL] | MIC (Klebsiella X26) [µg/mL] | MIC [11] [µg/mL] | MIC (Escherichia coli TEM) [µg/mL] | ED50 ([12]; C203, Oral) [mg/kg] | ED50 ([12]; C203, sc, Subcutaneous) [mg/kg] | MIC [13] [µg/mL] | MIC [14] [µg/mL] | MIC [15] [µg/mL] | MIC (Mycoplasma synoviae 40A) [µg/mL] | further results
CCC1OC(=O)CC(O)C(C)C(OC2OC(C)C(O)C(N(C)C)C2O)C(CCN2CCC(c3ccccc3)CC2)CC(C)C(=O)C=CC(C)=CC1COC1OC(C)C(O)C(OC)C1OC (stereo not shown) [Compound D4, 20-DH-DO-20-(4-Phenylpiperidin-1-yl)desmycosin] | 0.25 (≈ 0.273 µM) | 0.5 (≈ 0.545 µM) | 0.25 (≈ 0.273 µM) | 8 (≈ 8.72 µM) | 0.25 (≈ 0.273 µM) | 0.5 (≈ 0.545 µM) | 8 (≈ 8.72 µM) | 64 (≈ 69.8 µM) | 0.5 (≈ 0.545 µM) | 64 (≈ 69.8 µM) | 0.5 (≈ 0.545 µM) | 32 (≈ 34.9 µM) | 0.5 (≈ 0.545 µM) | 32 (≈ 34.9 µM) | 19 | 6 | 1 (≈ 1.09 µM) | 6.25 (≈ 6.81 µM) | 0.39 (≈ 0.425 µM) | < 0.05 | Number of Deaths/Number Treated (Pasteurella multocida [1]): 6/10; Number of Deaths/Number Treated (Pasteurella multocida [2]): 9/10; MIC (Group D strain 9960): 2 µg/mL (≈ 2.18 µM); MIC [16]: 6.25 µg/mL (≈ 6.81 µM); MIC [17]: 6.25 µg/mL (≈ 6.81 µM); MIC (Streptococcus sp. 19F): 0.09 µg/mL (≈ 0.0981 µM); MIC (Staphylococcus aureus): 0.39 µg/mL (≈ 0.425 µM); MIC [18]: 0.78 µg/mL (≈ 0.85 µM); MIC (Mycoplasma hyorhinis 29E): 50 µg/mL (≈ 54.5 µM)
CCC1OC(=O)CC(O)C(C)C(OC2OC(C)C(O)C(N(C)C)C2O)C(CCN2CCCCCCC2)CC(C)C(=O)C=CC(C)=CC1COC1OC(C)C(O)C(OC)C1OC (stereo not shown) [Compound D6] | 0.25 (≈ 0.288 µM) | 0.5 (≈ 0.575 µM) | 0.5 (≈ 0.575 µM) | 16 (≈ 18.4 µM) | 0.5 (≈ 0.575 µM) | 5 (≈ 5.75 µM) | 16 (≈ 18.4 µM) | 64 (≈ 73.6 µM) | 0.5 (≈ 0.575 µM) | 64 (≈ 73.6 µM) | 0.5 (≈ 0.575 µM) | 16 (≈ 18.4 µM) | 0.5 (≈ 0.575 µM) | 16 (≈ 18.4 µM) | 14 | 0.7 | 4 (≈ 4.6 µM) | 1.56 (≈ 1.79 µM) | 1.56 (≈ 1.79 µM) | 0.78 (≈ 0.897 µM) | MIC (Group D strain 9960): 8 µg/mL (≈ 9.2 µM); Titratable groups [19]: 7.3; Titratable groups (first value) [19]: 5.4; pKa ([19]; Titratable groups): 9.4; pKa ([19]; Titratable groups (first value)): 7.9; pKa ([19]; Titratable groups (third printed value)): 9.2; MIC [16]: 3.12 µg/mL (≈ 3.59 µM); MIC [17]: 6.25 µg/mL (≈ 7.19 µM); MIC (Streptococcus sp. 19F): 0.78 µg/mL (≈ 0.897 µM); MIC (Staphylococcus aureus): 0.78 µg/mL (≈ 0.897 µM); MIC [18]: 1.56 µg/mL (≈ 1.79 µM); MIC (Mycoplasma hyorhinis 29E): 50 µg/mL (≈ 57.5 µM)
CCC1OC(=O)CC(O)C(C)C(OC2OC(C)C(O)C(N(C)C)C2O)C(CCN2CCC3CCCCC3C2)CC(C)C(=O)C=CC(C)=CC1COC1OC(C)C(O)C(OC)C1OC (stereo not shown) [Compound D29, 20-DH-DO-20-(decahydroisoquinolin-2-yl)desmycosin] | 0.125 (≈ 0.14 µM) | 0.5 (≈ 0.559 µM) | 0.5 (≈ 0.559 µM) | 4 (≈ 4.47 µM) | 0.5 (≈ 0.559 µM) | 0.5 (≈ 0.559 µM) | 4 (≈ 4.47 µM) | 64 (≈ 71.5 µM) | 0.5 (≈ 0.559 µM) | 64 (≈ 71.5 µM) | 0.5 (≈ 0.559 µM) | 32 (≈ 35.7 µM) | 0.5 (≈ 0.559 µM) | 16 (≈ 17.9 µM) | 10.3 | 1.56 | 2 (≈ 2.23 µM) | 6.25 (≈ 6.98 µM) | 0.195 (≈ 0.218 µM) | < 0.048 | MIC [20]: 8 µg/mL (≈ 8.94 µM); MIC [16]: 3.12 µg/mL (≈ 3.49 µM); MIC [21]: 1.56 µg/mL (≈ 1.74 µM); MIC [17]: 6.25 µg/mL (≈ 6.98 µM); MIC (Streptococcus sp. 19F): 1.56 µg/mL (≈ 1.74 µM); MIC [18]: 0.195 µg/mL (≈ 0.218 µM); MIC (Mycoplasma hyorhinis 29E): 6.25 µg/mL (≈ 6.98 µM)
